Data from US9820963B2, “Composition containing lignan compound as active ingredient for preventing or treating cancer” (KOREA RESEARCH INSTITUTE OF BIOSCIENCE AND BIOTECHNOLOGY, priority 2013, dated 2017).
“Also recorded” adds a separate entry of the source.

Key:
[1] = test system: ERKs/RSKs signaling pathway; test: Western blot of EGF-stimulated cells, ERKs/RSKs signaling pathway; format: cell-based, mouse; details: for ERK1/2 phosphorylation at Thr202/Tyr204: JB6 Cl41 cells
Experimental: The cultured JB6 Cl41 cells (1×10^6 cells) were aliquoted into a cell culture dish with a diameter of 100 mm and they were cultured overnight. Then, the cells were left for 24 hours in 0.1% FBS-MEM and pretreated with magnolin at concentrations of 15 μM, 30 μM, and 60 μM for 30 minutes, respectively, and after 30 minutes, co-treated with EGF and magnolin.
The proteins were extracted from the cultured JB6 Cl41 cells and the samples containing the proteins were analyzed by 8% to 10% SDS-PAGE, and transferred onto polyvinylidene difluoride (PVDF) membranes. The membranes were cultured in a blocking buffer containing 5% skim milk. Then, Western blot was performed using specific antibodies for phospho-MEK (MAPK (mitogen-activated protein kinase)/ERK kinase), total-MEK, phospho-ERK, total-ERK, phospho-RSK, total-RSK, phospho-Akt, total-Akt, phospho-p38 kinase, total-p38 kinase, phospho-JNK (c-Jun N-terminal kinase), and total-JNK (all the antibodies obtained from Cell Signaling Technology, Beverly, Mass., USA). In particular, β-actin (Santa Cruz, Calif., USA) was used as a control and the Western blot was visualized with an enhanced chemiluminescence detection system (Amersham Biosciences, Piscataway, N.J., USA) using the Chemidoc XRS imager system (Bio-Rad Laboratories, Hercules, Calif., USA).
To confirm whether the action of magnolin, which interrupts phosphorylation at Thr359/Ser363 of RSKs, was selective in MEKs/ERKs signaling pathways or not, the action was compared by conducting an experiment on the phosphorylation of ERKs and RSKs by treatment with PD98059, an MEK1/2 inhibitor. As a result, it was confirmed that PD98059 interrupts ERK1/2 phosphorylation at Thr202/Tyr204.

[2] = test system: Mouse skin epidermal JB6 Cl41 cells; test: MTS assay, inhibitory effect of magnolin on cell proliferation; format: cell-based; details: up to 96 hours, read-out: inhibition of cell proliferation compared with DMSO control
Experimental: Mouse skin epidermal JB6 Cl41 cells were cultured in Dulbeco's Modified Eagle's Medium (DMEM) containing 10% FBS at 37° C. in a 5% CO2 bioreactor. The cells were subcultured at 80% to 90% confluence and the medium was changed every 2 to 3 days.
The cultured JB6 Cl41 cells (1×10^3 cells) were aliquoted into 96-well plates containing 5% FBS-MEM and cultured for 2 hours at 37° C. in a 5% CO2 bioreactor. Then, each well was added with 20 μL of an aqueous solution of the MTS-based Cell Titer 96, and then, further cultured for 1 hour at 37° C. in a 5% CO2 bioreactor. 25 μL of 10% sodium dodeceyl sulfate (SDS) solution was added into each of the wells to stop the reaction. The absorbance at 492 nm was measured to measure the growth of the cells at 0 hour.
While measuring the absorbance at 0 hour, the cells were simultaneously treated with the magnolin samples to final concentrations of 15 μM, 30 μM, and 60 μM, respectively, prepared in Example 5. The cells were cultured for 96 hours while measuring the absorbance at 24 hour intervals. In the experiment, the cell treated with DMSO alone was set as a control.

[3] = test system: JB6 Cl41 cells; test: Cytotoxicity of magnolin; format: cell-based, mouse; details: 100 μM or higher, 48 hours
Experimental: Additionally, to examine the cytotoxicity of magnolin, the cultured cells (2×10^4 cells) were aliquoted into 96-well plates containing 5% FBS-MEM and cultured overnight. Then, the cells were treated with the magnolin samples to final concentrations of 15 μM, 30 μM, 60 μM, and 100 μM respectively, prepared in the Example 5. The cells were cultured for 48 hours while measuring the absorbance at 24 hour intervals. In the experiment, the cell treated with DMSO alone was set as a control.

[4] = test system: JB6 Cl41 cells; test: Cell cycle distribution by PI flow cytometry, normal culture conditions; format: cell-based, mouse; details: for distribution in G1/G0 phase: 12 hours (control about 42%)
Experimental: To observe the cell cycle of the cells under normal cell culture conditions, JB6 Cl41 cells were cultured in a complete cell culture medium for 12 hours and treated with magnolin at final concentrations of 30 μM and 60 μM, respectively. After 12 hours, the cells were treated with trypsin, fixed, and treated with 20 μg/mL of PI at 4° C. for 15 minutes. Then, the cell cycle distribution was analyzed using the flow cytometry (BD FACS Calibur™ Flow cytometery, Franklin Lakes, N.J., USA).

[5] = test system: JB6 Cl41 cells; test: EGF-induced cell cycle progression; format: cell-based, mouse; details: 60 μM or higher, 1 ng/mL EGF, 12 hours
Experimental: Then, the cells were pretreated with magnolin to final concentrations of 15 μM, 30 μM, and 60 μM, respectively, for 30 minutes. Then, under the presence of magnolin, the cells were stimulated with 1 ng/mL of EGF for 12 hours.

[6] = target: ERK1 (Homo sapiens, UniProt P27361); test: In vitro kinase analysis with active ERK1 and His-RSK2-328-740; format: biochemical
ERK1, sequence (P27361 whole entry, species assumed, the tested form may be a part): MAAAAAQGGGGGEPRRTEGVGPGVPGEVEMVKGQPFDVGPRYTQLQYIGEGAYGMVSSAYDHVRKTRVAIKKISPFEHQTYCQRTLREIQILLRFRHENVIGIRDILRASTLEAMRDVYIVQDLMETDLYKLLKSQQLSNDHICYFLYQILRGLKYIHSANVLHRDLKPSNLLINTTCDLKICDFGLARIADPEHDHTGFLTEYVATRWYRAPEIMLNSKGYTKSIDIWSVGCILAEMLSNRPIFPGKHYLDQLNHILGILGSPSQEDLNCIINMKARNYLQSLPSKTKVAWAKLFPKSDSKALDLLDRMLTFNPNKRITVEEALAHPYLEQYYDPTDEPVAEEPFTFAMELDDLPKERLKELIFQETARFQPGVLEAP
Experimental: (§1) A truncated RSK2 protein containing the amino acid at position 328 to the amino acid at position 740 (His-RSK-328-740) was purified using Ni-NTA agarose beads (Qiagen Korea Ltd., Seoul, Korea) (Left panel on FIG. 13A) and an in vitro-kinase analysis was performed using active ERK and His-RSK2-328-740 proteins. Specifically, in the in vitro-kinase analysis, 20 μL of the purified sample was treated with 20 ng of active ERK1 or ERK2, 100 ng of RSK2, and 100 μM of cold-ATP, and 3.75 μM, 7.5 μM, 15 μM, 30 μM, and 60 μM of magnolin, respectively. Then, the kinase reaction was performed for 30 minutes at 30° C. The reaction was stopped by adding 6×SDS-sample buffer followed by boiling. Upon termination of the reaction, the resultant was visualized by Western blot.
(§2) As the result of the computational docking, it was observed that magnolin forms hydrogen bonds with Lys168 of ERK1 (Left panel on FIG. 13B) and Met108 and Lys54 of ERK2 (Right panel on FIG. 13B), respectively. Further, it was confirmed that magnolin in the active pocket of ERK1 or ERK2 was completely different in molecular structure and binding angle. The docking scores of magnolin at the active pockets of ERK1 and ERK2 were −0.7 and −6.68, respectively. Further, to measure the IC50 value on the activity of ERK1 or ERK2, the in vitro-kinase analysis was performed.

[7] = target: T1, ERK2 (Homo sapiens, UniProt P28482); test: In vitro kinase analysis with active ERK2 and His-RSK2-328-740; format: biochemical
T1 sequence (P28482 whole entry): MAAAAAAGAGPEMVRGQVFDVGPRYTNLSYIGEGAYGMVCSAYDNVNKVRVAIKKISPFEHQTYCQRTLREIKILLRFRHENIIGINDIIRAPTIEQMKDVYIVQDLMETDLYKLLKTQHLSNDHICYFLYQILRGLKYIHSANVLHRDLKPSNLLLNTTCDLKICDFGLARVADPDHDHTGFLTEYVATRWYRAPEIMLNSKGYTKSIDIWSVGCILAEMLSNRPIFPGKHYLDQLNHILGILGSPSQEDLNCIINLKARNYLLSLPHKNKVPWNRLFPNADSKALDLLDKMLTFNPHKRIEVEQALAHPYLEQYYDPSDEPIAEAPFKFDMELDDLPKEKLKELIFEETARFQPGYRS
Experimental: as §1, §2

[8] = target: T1, ERK2; test: Magnolin competition analysis using ATP-agarose beads; format: binding; details: increasing magnolin
Experimental: Then, to confirm whether magnolin was competitive with ATP or not, a magnolin competition analysis was performed using APT-agarose beads. As the result of the experiment, it was confirmed that an increase in magnolin decreased ERK2 that bind to ATP-agarose beads (FIG. 13E).

[9] = test system: ATF1 and AP-1 transactivation activities; test: ATF1 and AP-1 phosphorylation, nuclear localization and transactivation (Western blot, luciferase reporter); format: cell-based, mouse
Experimental: 1×10^6 of the cultured JB6 Cl41 cells were cultured in a cell culture dish with a diameter of 100 mm for overnight. The cells were starved and left for 24 hours, and then pretreated with magnolin at concentrations of 15 μM, 30 μM, and 60 μM of for 30 minutes, and then co-treated with […] of EGF and magnolin for 30 minutes. The proteins were extracted from the cells and visualized by Western blot.
On the other hand, the cells were co-transfected with pGAL4-ATF1-expressing plasmids and p5xGal4-luciferase reporter plasmids, and then cultured for 12 hours. The cells were pretreated with magnolin for 30 minutes, and co-treated with EGF and magnolin for 6 hours. Then, the cell culture was stopped and the activity of firefly luciferase was measured using the VIXTOR X3(PerkinElmer).

[10] = test system: JB6 Cl41 cells; test: Anchorage-independent cell transformation assay, EGF-induced; format: cell-based; details: Mus musculus, JB6 Cl41, 336 h, 10 ng/mL EGF, 14 days
Experimental: JB6 Cl41 cells (8×10^3 cells) present in 1 mL of 0.3% Basal Medium Eagle (BME) agar containing 10% FBS and magnolin in concentrations of 15 μM, 30 μM, and 60 μM, respectively, were exposed to 10 ng/mL of EGF, maintained at 37° C., and cultured in a 5% CO2 bioreactor for 14 days. Then, the number and size of the colonies were counted using an ECLIPSE Ti inverted microscope and the NIS-Elements AR (V. 4.0) computer software program (NIKON Instruments Korea, Seoul, Korea).

[11] = test system: A549 human lung cancer cells harboring Ras^G12V; test: Cell proliferation of lung cancer cells; format: cell-based; details: 15, 30, 60 μM, 96 hours
Experimental: H226 human lung cancer cells (2×10^3 cells) harboring Ras-wt and A549 human lung cancer cells (2×10^3 cells) harboring Ras^G12V, mutant activating factor, were aliquoted into 96-well plates, respectively, and treated with magnolin at concentrations of 15 μM, 30 μM, and 60 μM. The cells were cultured for 96 hours at 24 hour intervals and the cell proliferation was measured.

[12] = test system: A549 cells having Ras^G12V; test: Anchorage-independent colony growth in soft agar; format: cell-based, human; details: 15, 30, 60 μM, 10 days
Experimental: Further, H226 cells (8×10^3 cells) having Ras-wt and A549 cells (8×10^3 cells) having Ras^G12V were cultured in 1 mL of 0.3% DMEM agar containing 10% FBS and 15 μM, 30 μM, and 60 μM of magnolin, respectively, maintained at 37° C., and cultured in a 5% CO2 bioreactor for 10 days. As the result of counting the number and size of the cell colonies using an ECLIPSE Ti inverted microscope and the NIS-Elements AR (V. 4.0) computer software program, it was observed that an anchorage-independent colony growth of A549 cells was inhibited by magnolin.

[13] = test system: NIH3T3 cells expressing Ras^G12V; test: Cell proliferation and anchorage-independent colony growth of NIH3T3 cells; format: cell-based
Description: In order to confirm the experimental results more precisely, NIH3T3 cells stably expressing mock or Ras^G12V were used to perform an additional experiment in the same manner as described above.

[14] = co-treated with EGF and magnolin

For `COc1cccc(-c2cc(=O)c3ccccc3o2)c1N` [PD98059, reference compound], the “phosphorylation at Thr359/Ser363 of RSKs” value ([1]; EGF-stimulated JB6 Cl41 cells) was “inhibited” and the “ERK1/2 phosphorylation at Thr202/Tyr204” value [1] was “interrupts”.

With `COc1ccc([C@H]2OC[C@H]3[C@@H]2CO[C@@H]3c2cc(OC)c(OC)c(OC)c2)cc1OC` [magnolin] the inhibition at 30 µM ([2]; 30 μM) was ~40%, the inhibition at 60 µM ([2]; 60 μM) was ~70% and the cytotoxicity [3] was “no cytotoxicity was observed”. The “distribution in G2/M cell cycle phase compared to control” value ([4]; 30 μM and 60 μM, 12 hours) was “only a very small increase”, the “distribution in G1/G0 phase” value ([4]; 30 μM) was “about 55%” and the “distribution in G1/G0 phase” value ([4]; 60 μM) was “about 60%”. For the same compound, the “effect of EGF on cell cycle” value [5] was “almost completely inhibited”, the “phosphorylation at Thr359/Ser363 of RSKs” value ([1]; EGF-stimulated JB6 Cl41 cells) was “interrupting phosphorylation; also recorded: inhibited” and the “phosphorylations of MEK, Akt, p38 kinase, and JNKs” value ([1]; EGF-stimulated JB6 Cl41 cells) was “not to be involved”. For the same compound, the “ERK1/2 phosphorylation at Thr202/Tyr204” value [1] was “does not interrupt the phosphorylation”, the “inhibition of ERK1-mediated RSK2 phosphorylation at Thr359/Ser363 and Thr577” value ([6]; in vitro kinase reaction, 100 μM ATP, magnolin 3.75 to 60 μM) was “about 90%” and the IC50 ([6]; in vitro-kinase analysis) was ~87 nM. The IC50 [7] was 16.5 nM, the “ERK2 binding to ATP-agarose beads” value [8] was “decreased” and the “EGF-induced ATF1 phosphorylation at Ser63” value ([9]; JB6 Cl41 cells, Western blot) was “inhibited”. The AP-1 transactivation activity [9, 14] was “inhibited”, the “EGF-induced c-Jun phosphorylation at Ser63 and Ser73” value [9, 14] was “inhibited” and the “nuclear phospho-c-Jun increased by EGF stimulation” value [9, 14] was “decreased”. For the same compound, the “nuclear phospho-ATF1 protein level induced by EGF” value ([9]; co-treated with EGF and magnolin, Western blot and immunocytofluorescence) was “decreased”, the “ATF1 transactivation activity increased by EGF stimulation” value ([9]; co-treated with EGF and magnolin, luciferase reporter) was “inhibited” and the inhibition at 30 µM ([10]; 30 μM) was ~40%. The inhibition at 60 µM ([10]; 60 μM) was ~75%, the “inhibition of cell proliferation in A549 cells compared with H226 cells” value [11] was “more significantly” and the “anchorage-independent colony growth of A549 cells” value [12] was “inhibited”. For the same compound, the anchorage-independent growth [13] was “inhibited” and the “inhibition of cell proliferation compared with NIH3T3 cells expressing mock” value [13] was “more sensitive”.
